From PubChem BioAssay (NCI) come the findings set out here.

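Values below derive from 48-hour exposures of cells grown in 96-well plates, with endpoints linearly interpolated between the two concentrations bracketing the appropriate inhibition level. GI50 marks 50% less growth. TGI: concentration producing complete growth inhibition.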 A value given as a limit tells only on which side of the number the result lay.

As a reminder, the GI50 is the concentration that inhibits growth by half. In general, TGI refers to the concentration giving total growth inhibition. A higher TGI goes with less potent growth arrest.

Common to all, as to test: DTP human tumour cell line panel, 48 h
Test [1] relates to RPMI-8226 leukemia.
For test [2], the system named is NCI-H226 lung.
Test [3] deals with HCT-15 colon.
In test [4] the test system is SR leukemia.
The test system of test [5] is ACHN renal.
For test [6], the system named is A498 renal.
The test system of test [7] is OVCAR-3 ovarian.
Test [8] deals with SNB-75 CNS.
The subject of test [9] is SK-MEL-5 melanoma.
The test system of test [10] is UACC-257 melanoma.

Consider `[Au+].c1c[n-]cn1.c1ccc([PH+](c2ccccc2)c2ccccc2)cc1`, for which the GI50 is 8930 nM in test [1]; 12.8 µM in test [2]; 3.42 µM in [3]; 2540 nM in test [4]; 6.19 µM in test [5]; 17.4 µM in test [6]. Moreover, the GI50 in test [7] was 2430 nM; in test [8], 15200 nM; in test [9] it was 3.08 µM; in test [10], 5040 nM. In addition, the TGI in [1] is over 90.8 µM; in test [2], 51.3 µM; in test [3] it was 15.8 µM; in [4] it was 9.48 µM; in test [5], 17.6 µM; in test [6], 34.9 µM. The TGI came to 5.2 µM in test [7], 33.7 µM in test [8], 14.4 µM in test [9] and 15.8 µM in test [10].
`COc1ccc(NC(=O)C2=CC(=O)c3ccc(O)cc3C2=O)c(OC)c1`: the TGI in test [1], in test [2], in [3], in [4], in test [5] and in test [6] was over 100 µM throughout. Further, the TGI in [7], in test [8], in test [9] and in test [10] was over 100 µM throughout.
On to `O=C1NC(Cc2ccccc2)C(=O)N2CCCC12` (stereo not given), for which the TGI in test [1], in [2], in test [3], in test [4], in test [5] and in test [6] was over 100 µM each time. Also, the TGI in [7], in test [8], in [9] and in test [10] was over 100 µM throughout.
Consider `CCN(CC)CCNC(=O)C(Cl)=C1C(Cl)=C(Cl)C(Cl)=C1Cl`, for which the GI50 in test [1] was 3020 nM; in test [2] it was 4.08 µM; in test [3], 2.78 µM; in [4], 3360 nM; in test [5], 3.35 µM; in [6] it was 2.59 µM. Also, the GI50 in test [7] was 2450 nM; in [8] it was 2210 nM; in [9], 2.98 µM; in test [10], 2490 nM. The TGI is 10.8 µM in [1]; 35.8 µM in test [2]; 12.7 µM in [3]; over 100 µM in test [4]; 24.6 µM in [5]; 12.5 µM in test [6]. Further, the TGI in test [7] is 7.45 µM; in test [8] it was 6.78 µM; in test [9], 11.1 µM; in test [10], 11.7 µM.
On to `COc1ccc2c(c1)C(=O)c1c-2c(OCCN2CCCCC2)nc2ccc(OC)cc12`, for which the GI50 in test [1] is 474 nM; in [2] it was 0.705 µM; in [3], 0.54 µM; in test [4], 235 nM; in test [5], 0.425 µM; in test [6], 1.04 µM. The GI50 in test [7] is 892 nM; in test [8] it was 1270 nM; in [9] it was 1.92 µM; in test [10], 2070 nM. In addition, the TGI in [1] was 2.67 µM; in [2], 2.82 µM; in test [3], 2.63 µM; in test [4] it was 1.25 µM; in [5], 3.26 µM; in test [6], 4.73 µM. The TGI in test [7] stood at 2.67 µM; in test [8], 11.2 µM; in test [9], 5.61 µM; in test [10] it was 6.9 µM.
Take `O=C(O)c1c[nH]c2c(ccc3[nH]cc(C(=O)O)c(=O)c32)c1=O`: the TGI in [1], in test [2], in [3], in test [4], in test [5] and in [6] was over 100 µM throughout. Also, the TGI in test [7] was over 100 µM; in test [8] it was 75 µM; in test [9] it was over 100 µM; in test [10], over 100 µM.
As for `N/C(=N/N=C/c1cccc(F)c1)NO`, the TGI in test [1], in test [2], in [3], in test [4], in test [5] and in test [6] was over 100 µM throughout. For the same compound, the TGI was over 100 µM in test [7], over 100 µM in [8], 32.4 µM in test [9] and over 100 µM in test [10].
On to `O=[P+](O)c1cccnc1`, for which the TGI in test [1], in [2], in [3], in test [4], in test [5] and in [6] was over 100 µM in each case. For the same compound, the TGI in test [7], in test [8], in test [9] and in test [10] was over 100 µM throughout.
In the case of `C=C(C)C1CCC2(C(=O)O)CCC3(C)C(CCC4C5(C)CCC(O)C(C)(C)C5CCC43C)C12` (stereo not given), the TGI in [1] turned out to be 63.5 µM; in test [2], 40.9 µM; in test [3] it was 23.5 µM; in test [4] it was 27.6 µM; in [5] it was 21.1 µM; in test [6] it was 20.7 µM. The TGI in test [7] was 7.98 µM; in test [8] it was 33 µM; in test [9] it was 20.3 µM; in test [10], 21.8 µM.
Consider `Cc1cc(Cl)ccc1Nc1nc2c(s1)C(=O)c1ccccc1C2=O`, for which the TGI in test [1] came out at 11.1 µM; in test [2] it was 13.7 µM; in [3], 3.68 µM; in [4], 10.8 µM; in test [5] it was 10.3 µM; in test [6], 42 µM. The TGI worked out at 4.6 µM in test [7], 22 µM in test [8], 3.34 µM in test [9] and 5.64 µM in [10].
On to `O=C(c1ccccc1)c1c2n(c3c1cc(O)c1ccccc13)CCN2`, for which the GI50 in test [1] is 2420 nM; in test [2], 18.6 µM; in test [3], 6.5 µM; in test [4] it was 1060 nM; in [5] it was 13.5 µM; in test [6], 18.3 µM. Further, the GI50 in [7] was 2230 nM; in test [8] it was 2220 nM; in test [9], 12.1 µM; in test [10], 1910 nM. Moreover, the TGI in test [1] turned out to be 6.47 µM; in test [2], 41.3 µM; in test [3] it was 19.1 µM; in test [4] it was 3.46 µM; in test [5], 33.1 µM; in test [6], 35.4 µM. Besides, the TGI in test [7] turned out to be 7.82 µM; in test [8] it was 4.76 µM; in test [9], 25.1 µM; in [10] it was 3.4 µM.
